Reference: publication PMC12969314 (European journal of medicinal chemistry, 2022)

Assays:
[1] = Mouse liver microsomal intrinsic clearance; assay type: in vitro ADME; details: for Predicted hepatic clearance mCLHEP: well-stirred organ CL model, binding terms excluded; for CLint scaled: liver microsomes
[2] = Mouse plasma protein binding, equilibrium dialysis; assay type: in vitro ADME; details: mouse, plasma, fu (mPPB), fraction, used for Kp,uu
[3] = Discrete mouse in vivo PK study, plasma and brain; details: for half-life: ip, 5 mg/kg
[4] = Mouse brain homogenate binding; assay type: in vitro ADME
[5] = Human liver microsomal intrinsic clearance; assay type: in vitro ADME; details: human; for Predicted hepatic clearance hCLHEP: well-stirred organ CL model, binding terms excluded; for CLint scaled: liver microsomes, Intrinsic clearance hCLINT, human liver microsomes
α2A = target: T1, α2A (Homo sapiens, UniProt P08913); test: PDSP panel binding, α2A
T1 sequence (P08913 1-465): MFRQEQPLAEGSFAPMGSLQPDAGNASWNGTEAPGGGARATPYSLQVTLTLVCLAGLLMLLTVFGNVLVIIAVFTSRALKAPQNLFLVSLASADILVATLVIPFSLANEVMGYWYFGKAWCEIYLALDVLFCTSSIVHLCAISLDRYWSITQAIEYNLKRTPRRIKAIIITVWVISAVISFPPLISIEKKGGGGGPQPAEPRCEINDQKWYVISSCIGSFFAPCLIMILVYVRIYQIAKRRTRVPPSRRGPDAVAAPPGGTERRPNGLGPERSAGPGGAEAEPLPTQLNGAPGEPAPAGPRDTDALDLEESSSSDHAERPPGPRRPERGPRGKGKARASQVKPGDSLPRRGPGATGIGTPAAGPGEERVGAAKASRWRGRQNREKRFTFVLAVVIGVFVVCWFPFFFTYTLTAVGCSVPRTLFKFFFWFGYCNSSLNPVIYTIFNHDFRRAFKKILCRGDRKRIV

σ2 receptor = σ2 receptor (Homo sapiens, UniProt Q5BJF2); test: σ2 receptor radioligand binding, [3H]DTG, HEK293 membranes; details: ratio, σ1 over σ2
Sequence of σ2 receptor (Q5BJF2 whole entry, species assumed): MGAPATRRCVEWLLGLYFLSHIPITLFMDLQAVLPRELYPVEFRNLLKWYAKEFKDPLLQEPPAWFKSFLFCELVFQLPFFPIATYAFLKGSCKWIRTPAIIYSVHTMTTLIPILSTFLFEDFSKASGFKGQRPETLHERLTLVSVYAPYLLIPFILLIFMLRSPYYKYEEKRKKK

D4 receptor = target: T2, D4 receptor (Homo sapiens, UniProt P21917); assay type: binding
T2 sequence (P21917 1-419): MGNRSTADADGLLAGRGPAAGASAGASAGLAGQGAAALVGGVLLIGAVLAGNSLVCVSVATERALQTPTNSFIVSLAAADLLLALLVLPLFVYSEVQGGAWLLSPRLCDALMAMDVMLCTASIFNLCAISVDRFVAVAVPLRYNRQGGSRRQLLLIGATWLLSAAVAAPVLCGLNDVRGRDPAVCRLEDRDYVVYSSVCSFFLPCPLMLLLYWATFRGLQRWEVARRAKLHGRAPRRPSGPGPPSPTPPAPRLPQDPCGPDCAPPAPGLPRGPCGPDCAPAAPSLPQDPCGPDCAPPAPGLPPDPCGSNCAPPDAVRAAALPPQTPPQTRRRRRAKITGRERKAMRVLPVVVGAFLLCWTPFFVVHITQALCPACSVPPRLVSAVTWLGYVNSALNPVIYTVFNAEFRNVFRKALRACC

SERT = SERT (Homo sapiens, UniProt P31645); test: PDSP panel binding, SERT; details: σ1 over SERT
Sequence of SERT (P31645 whole entry, species assumed): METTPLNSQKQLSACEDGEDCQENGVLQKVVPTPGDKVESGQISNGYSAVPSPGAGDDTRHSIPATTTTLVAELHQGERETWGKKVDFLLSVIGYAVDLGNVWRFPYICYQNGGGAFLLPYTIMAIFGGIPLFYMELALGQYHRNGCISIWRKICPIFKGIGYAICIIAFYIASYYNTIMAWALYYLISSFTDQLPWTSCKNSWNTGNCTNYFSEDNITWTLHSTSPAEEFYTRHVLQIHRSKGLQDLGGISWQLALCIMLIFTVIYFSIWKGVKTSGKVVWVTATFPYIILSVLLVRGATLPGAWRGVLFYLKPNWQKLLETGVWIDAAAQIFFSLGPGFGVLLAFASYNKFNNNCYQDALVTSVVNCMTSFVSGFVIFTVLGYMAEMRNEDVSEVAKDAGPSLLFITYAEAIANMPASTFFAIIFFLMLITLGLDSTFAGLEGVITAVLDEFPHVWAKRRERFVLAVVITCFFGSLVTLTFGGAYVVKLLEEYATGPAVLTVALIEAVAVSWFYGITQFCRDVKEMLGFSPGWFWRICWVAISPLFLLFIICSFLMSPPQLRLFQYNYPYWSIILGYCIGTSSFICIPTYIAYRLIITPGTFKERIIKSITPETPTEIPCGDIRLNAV

α2C = target: T3, α2C (Homo sapiens, UniProt P18825); test: PDSP panel binding, α2C
T3 sequence (P18825 1-462): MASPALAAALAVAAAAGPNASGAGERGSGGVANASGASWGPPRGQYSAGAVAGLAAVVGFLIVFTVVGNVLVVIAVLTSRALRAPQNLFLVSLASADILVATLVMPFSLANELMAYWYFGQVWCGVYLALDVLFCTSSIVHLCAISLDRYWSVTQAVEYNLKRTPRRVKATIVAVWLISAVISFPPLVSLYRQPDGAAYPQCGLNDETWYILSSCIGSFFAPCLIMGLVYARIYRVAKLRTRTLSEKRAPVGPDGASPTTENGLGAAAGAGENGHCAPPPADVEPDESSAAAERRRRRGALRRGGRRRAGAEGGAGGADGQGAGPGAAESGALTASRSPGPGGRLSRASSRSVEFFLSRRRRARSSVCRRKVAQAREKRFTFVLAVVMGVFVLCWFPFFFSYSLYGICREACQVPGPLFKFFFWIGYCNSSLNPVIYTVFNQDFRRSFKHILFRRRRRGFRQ

[6] = Human plasma protein binding, equilibrium dialysis; assay type: in vitro ADME
D1 receptor = D1 receptor (Homo sapiens, UniProt P21728); test: D1 receptor radioligand binding, [3H]SCH23390, HEK293 membranes
Sequence of D1 receptor (P21728 whole entry): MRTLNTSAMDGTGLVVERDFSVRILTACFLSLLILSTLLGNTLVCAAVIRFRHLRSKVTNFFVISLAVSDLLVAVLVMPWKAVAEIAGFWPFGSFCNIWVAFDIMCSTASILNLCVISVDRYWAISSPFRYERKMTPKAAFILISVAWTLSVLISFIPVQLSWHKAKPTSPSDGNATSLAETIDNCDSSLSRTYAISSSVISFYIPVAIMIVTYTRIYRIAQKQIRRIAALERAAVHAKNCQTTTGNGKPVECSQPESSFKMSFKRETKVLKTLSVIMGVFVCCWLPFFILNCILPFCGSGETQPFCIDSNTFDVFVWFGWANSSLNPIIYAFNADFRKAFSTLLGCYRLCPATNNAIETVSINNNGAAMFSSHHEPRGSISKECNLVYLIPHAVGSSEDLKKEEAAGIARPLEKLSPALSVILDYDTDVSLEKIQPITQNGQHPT

SMILES | Predicted hepatic clearance mCLHEP [1] | fraction unbound [2] | half-life ([3]; brain) | half-life ([3]; plasma) | fraction unbound [4] | Predicted hepatic clearance hCLHEP [5] | CLint scaled [1] | Ki (α2A) | selectivity versus α2A (α2A; σ1 over α2A) | selectivity σ1:σ2 (σ2 receptor) | Ki (D4 receptor) | CLint scaled [5] | selectivity versus SERT (SERT) | Ki (α2C) | selectivity versus α2C (α2C; σ1 over α2C) | B:P Kp,uu ([3]; IP 5 mg/kg, 5 h, free brain to free plasma concentration) | selectivity against the dopamine receptor family (D4 receptor; σ1 over D1-5) | Stability in human plasma (hPPB column) [6] | Ki (D1 receptor) | inhibition at 10 µM (D4 receptor; read-out: D4 % inhibition)
Fc1cc(COC2CCN(Cc3ccc4[nH]cnc4c3)CC2)ccc1Cl [Compound 10b, 5-((4-((4-chloro-3-fluorobenzyl)oxy)piperidin-1-yl)methyl)-1H-benzo[d]imidazole] | 45.1 mL/min/kg | 0.189 | 6.9 h | 3.7 h | 0.093 | 14.2 mL/min/kg |  |  |  |  |  |  |  |  |  |  |  |  |  | 
Fc1ccc(CN2CCCC23CCN(Cc2cn4ccccc4n2)C3)cc1F (centres unmarked) [Compound 25a, 1-(3,4-difluorobenzyl)-7-(imidazo[1,2-a]pyridin-2-ylmethyl)-1,7-diazaspiro[4.4]nonane] | 79.8 mL/min/kg |  |  |  |  | 18.4 mL/min/kg | 696 mL/min/kg | 697 nM | 194 | 6 | > 10000 nM | 223 mL/min/kg |  |  |  |  |  |  |  | 
Fc1ccc(COC2CCN(Cc3ccc4[nH]cnc4c3)CC2)cc1F [Compound 10a, 5-((4-((3,4-difluorobenzyl)oxy)piperidin-1-yl)methyl)-1H-benzo[d]imidazole] | 46.0 mL/min/kg | 0.358 | 9.1 h | 2.1 h | 0.205 | <10 mL/min/kg |  |  |  | 20 |  | < 20 mL/min/kg | 20 | 853 nM | 103 | 3.68 | > 490 fold |  |  | 
COc1ccc(CN2CCC[C@@H](OCc3ccc(F)c(C)c3)C2)cc1F [Compound 19b, (R)-3-((4-fluoro-3-methylbenzyl)oxy)-1-(3-fluoro-4-methoxybenzyl)piperidine] | 82.4 mL/min/kg |  |  |  |  | 19.5 mL/min/kg | 961 mL/min/kg |  |  |  |  | 674 mL/min/kg |  |  |  |  |  | c |  | 
COc1ccc(CO[C@H]2CCCN(Cc3cccc(C)c3)C2)cc1F [Compound 19h, (S)-3-((3-fluoro-4-methoxybenzyl)oxy)-1-(3-methylbenzyl)piperidine] |  |  |  |  |  |  |  |  |  |  | > 10000 nM |  |  |  |  |  |  |  | > 10000 nM | 46%
